As a reminder, the IC50 is the concentration needed to halve the response being measured. Usually remaining activity stands for the share of the control activity or signal that is left under treatment.

This is an account of results in paper PMC7699247 (Antibiotics, 2020).

Where two headings read alike, the source gives them in different places.

Assay [1] deals with T1, membrane-bound E. coli F1F0-ATPase (Escherichia coli, UniProt P0ABB4). The experiment in a line: biochemical. The arrangement: endogenous in cells; host or cells: Escherichia coli culture; crude membrane pellet after EDTA, freeze-thaw, sonication and centrifugation; species or system Escherichia coli (ATCC 25922). How it is done: The supernatant is then removed.
Assays for each phosphate concentration were done in triplicate.
All tests were performed in triplicate.
IC50 values were determined using the PRISM® 5.04 (GraphPad software, San Diego, CA, USA) software, from a dose-response curve established by drawing the percentage of enzymatic activity (%) at different concentrations of the inhibitor expressed in terms of a log (inhibitor) (μM).
Different volumes of the stock solution of venom prepared in the buffer tris-HCl (pH = 8.5; 50 mM) are added to the reaction medium containing the transmembrane enzyme followed by ATP at 100 μM. […] The reaction is then stopped by the addition of 1% SDS (v/v). […] All assays were performed in triplicate.
Different volumes of the stock solution of phospholipase A2 are added to the reaction medium containing the isolated membrane-bound enzyme followed by ATP at 100 μM.
The effect of melittin on the membrane-bound F1F0-ATPase is studied as described in Section 4.7. Different volumes of the stock solution of melittin are added to the reaction medium containing the enzyme followed by ATP at 100 μM. […] The reaction is then stopped using a solution of 1% SDS (v/v). […] IC50 values were obtained from the dose-response curve using PRISM® 5.04 software. All assays were done in triplicate.

For assay [2], the target named is T1, membrane-bound E. coli F1F0-ATPase. The arrangement: endogenous in cells; host or cells: Escherichia coli culture; crude membrane pellet after EDTA, freeze-thaw, sonication and centrifugation. As to conditions: literature value, ref [7]; cited from earlier work. From the text:
Figure 2 (a) Dose-response curve representing the enzymatic activity (%) of E. coli F1F0-ATPase as a function of the log of the concentration of thymoquinone, quercetin and melittin, respectively. Error bars show the standard deviation obtained from experiments done in triplicate; (b) Comparison between the IC50 values of the reference inhibitors obtained by the developed method and from the literature. […] Good repeatabilities were obtained with relative standard deviations (RSD) below 6% and R^2 > 0.99. Likewise, melittin is found to be a strong potent inhibitor of E. coli F1F0-ATPase with its low IC50 value in the micromolar range.

For assay [3] the target is unchanged. Kind of assay: Combination effect of PLA2 and melittin on membrane-bound E. coli F1F0-ATPase. As to conditions: read-out: remaining enzymatic activity, melittin alone.

As to `O=c1c(O)c(-c2ccc(O)c(O)c2)oc2cc(O)cc(O)c12` [Quercetin, quercetin], the concentration for half-maximal inhibition (IC50) in assay [1] (read-out: IC50) is 30 ± 1.5 µM; in assay [2] it was 33 µM.

Regarding `CC1=CC(=O)C(C(C)C)=CC1=O` [Thymoquinone, thymoquinone], the IC50 in assay [1] (read-out: IC50) worked out at 57.5 ± 2.99 µM.

In assay [1], `CC[C@H](C)[C@H](NC(=O)CN)C(=O)NCC(=O)N[C@@H](C)C(=O)N[C@H](C(=O)N[C@@H](CC(C)C)C(=O)N[C@@H](CCCCN)C(=O)N[C@H](C(=O)N[C@@H](CC(C)C)C(=O)N[C@H](C(=O)N[C@H](C(=O)NCC(=O)N[C@@H](CC(C)C)C(=O)N1CCC[C@H]1C(=O)N[C@@H](C)C(=O)N[C@@H](CC(C)C)C(=O)N[C@H](C(=O)N[C@@H](CO)C(=O)N[C@@H](Cc1c[nH]c2ccccc12)C(=O)N[C@H](C(=O)N[C@@H](CCCCN)C(=O)N[C@@H](CCCNC(=N)N)C(=O)N[C@@H](CCCCN)C(=O)N[C@@H](CCCNC(=N)N)C(=O)N[C@@H](CCC(N)=O)C(=O)N[C@@H](CCC(N)=O)C(N)=O)[C@@H](C)CC)[C@@H](C)CC)[C@@H](C)O)[C@@H](C)O)C(C)C)C(C)C` [melittin] showed an IC50 of 9.03 ± 0.27 µM. Also, the maximum inhibition result in assay [1] (plateau of concentration curve, ATP 100 μM, 40 min, 37 °C, pH 8.5, triplicate) is listed as “about 80%”. Further, the remaining activity at 9 µM in assay [3] came out at 51.7%.
